Source: paper PMC11303713, “Allosteric inhibition of CFTR gating by CFTRinh-172 binding in the pore” (Nature Communications, 2024)
Values joined by “and” are separate entries in the source; they are usually repeats but may differ in a detail not shown here. Equal entries are not always repeated. Where two headings read alike, the source gives them in different places.

Tests used:
[1] = target: T1, h-pTMD1-h-CFTR (human CFTR with pig CFTR's TMD1) (Homo sapiens, UniProt P13569, A209T/D426N/E115A/E407K/F315L/F87I/G228A/I125V/I215L/I231V/I328L/I332M/L145P/N418S/N445S/P41S/Q39H/R242K/S256N/T421I/V11I/V12F/V43S); test: Inside-out patch-clamp inhibition of CFTR current by Inh-172; format: cell-based
T1 construct: expressed in transfected cells; host or cells: CHO cells, pcDNA plasmid
Experimental: CHO cells were grown at 37 °C in Dulbecco’s modified Eagle’s medium supplemented with 10% (vol/vol) fetal bovine serum (Sigma-Aldrich, St. Louis, MO). pcDNA plasmids carrying the desired CFTR construct were transfected to CHO cells using PolyFect transfection reagent (Qiagen, Hilden, Germany) together with green fluorescence protein (GFP) cDNA (pEGFP-C3, Takara Bio, Shiga, Japan) that helps identify expression of CFTR. Cells were first incubated with the transfection reagents at 37 °C for 6-12 hours on sterile glass chips in 35-mm tissue culture dishes before transferred to 27 °C for incubation for 2–7 days. Primers for mutations were ordered from Integrated DNA Technologies (Coralville, IA) and were summarized in Supplementary Data. All CFTR mutants were prepared with QuikChange XL kit (Agilent, Santa Clara, CA) and sequenced at the DNA Core facility at University of Missouri-Columbia.
Patch-clamp pipettes were made from borosilicate capillary glass using a two-stage vertical puller (PP-81; Narishige, Amityville, NY). The pipette tips were fire polished with a homemade microforge to yield a pipette resistance of 2–5 MΩ when filled with a pipette solution containing (in mM): 140 NMDG-Cl (N-methyl-D-glucamine-chloride), 5 CaCl2, 2 MgCl2, and 10 HEPES, pH 7.4. For recordings, transfected cells on glass chips were transferred into a continuously perfused chamber on the stage of an inverted microscope (IX51; Olympus, Tokyo, Japan) with the perfusing solution containing (in mM): 150 NMDG-Cl, 2 MgCl2, 10 EGTA, 8 Tris, and 10 HEPES, pH 7.4. The membrane patch was excised to an inside-out configuration with a seal resistance >40 GΩ. CFTR currents were recorded with an amplifier (EPC9; HEKA, Holliston, MA), filtered through an eight-pole Bessel filter (LPF-8; Warner Instruments, Hamden, CT) at 100 Hz and digitized to a computer at a sampling rate of 500 Hz with Pulse software (version 8.53; HEKA). The membrane potential was held at −30 mV. Solution exchange was achieved by a fast solution change system (SF-77B; Warner Instruments). Inh-172 was obtained from the CFTR Chemical Compound Program supported by the Cystic Fibrosis Foundation. All experiments were performed at room temperature.
The steady state mean currents were measured in the Igor Pro software (version 8.0; WaveMetrics). The mean baseline currents were subtracted from the steady state mean currents before the data were used to determine the degrees of inhibition. The degrees of inhibition by CFTR inhibitor 172 were calculated based on the equation:1 %inhibition=1−IInh−172/I0X100% where I0 and Iinh−172 represent uninhibited and inhibited currents, respectively. The IC50 and Hill coefficients were obtained by fitting percent inhibition as a function of [Inh-172] with the Hill equation:2 %inhibition=base+(max−base)/1+xhalf/x^rate where max and base represent the […] percent inhibition by Inh-172, x represents the concentration of Inh-172, and the rate is the Hill coefficient. The estimated IC50 (xhalf) and Hill coefficients are listed in Table 1 as mean ± standard deviation. Each patch-clamp recording was made from a separate cell.

[2] = Visible precipitates in perfusion solution; format: physicochemical
From the text: Point 7 (poorly deﬁned dose-response curves): The authors response would seem to explain why points may be missing from the left side of the plot (Fig 4e), but I don't think it explains their absence from the right side. The data points for the three mutants roughly deﬁne a straight line. In order to have a meaningful ﬁt that can be used to extract a reliable IC50, one needs to sample higher and lower concentrations than the authors have done.
While I understand that there may be technical limitations that make this difficult or impossible, I think scientiﬁc rigor still has to be maintained. If the experiment cannot be done properly due to technical limitations, that is ﬁne, but low quality data should not be interpreted and presented. […]
and include in a publication. I also still think that the way the authors are reporting signiﬁcant ﬁgures this is not good practice, though this aspect is more of a stylistic/precision issue.
In Fig. 4e, we added 25 nM and 10 µM data points for WT-CFTR, and the newly added data […]
added 10 µM data point for M348K-CFTR, so that for all tested mutants, the maximum [Inh-172] is 10 µM (All related ﬁgures in the main text are updated). We could not increase [Inh-172] further because precipitates were seen gushing out of our perfusion tubing at concentrations ≥ 20 µM. […]

T1 sequence (P13569 1-1480 with the stated changes): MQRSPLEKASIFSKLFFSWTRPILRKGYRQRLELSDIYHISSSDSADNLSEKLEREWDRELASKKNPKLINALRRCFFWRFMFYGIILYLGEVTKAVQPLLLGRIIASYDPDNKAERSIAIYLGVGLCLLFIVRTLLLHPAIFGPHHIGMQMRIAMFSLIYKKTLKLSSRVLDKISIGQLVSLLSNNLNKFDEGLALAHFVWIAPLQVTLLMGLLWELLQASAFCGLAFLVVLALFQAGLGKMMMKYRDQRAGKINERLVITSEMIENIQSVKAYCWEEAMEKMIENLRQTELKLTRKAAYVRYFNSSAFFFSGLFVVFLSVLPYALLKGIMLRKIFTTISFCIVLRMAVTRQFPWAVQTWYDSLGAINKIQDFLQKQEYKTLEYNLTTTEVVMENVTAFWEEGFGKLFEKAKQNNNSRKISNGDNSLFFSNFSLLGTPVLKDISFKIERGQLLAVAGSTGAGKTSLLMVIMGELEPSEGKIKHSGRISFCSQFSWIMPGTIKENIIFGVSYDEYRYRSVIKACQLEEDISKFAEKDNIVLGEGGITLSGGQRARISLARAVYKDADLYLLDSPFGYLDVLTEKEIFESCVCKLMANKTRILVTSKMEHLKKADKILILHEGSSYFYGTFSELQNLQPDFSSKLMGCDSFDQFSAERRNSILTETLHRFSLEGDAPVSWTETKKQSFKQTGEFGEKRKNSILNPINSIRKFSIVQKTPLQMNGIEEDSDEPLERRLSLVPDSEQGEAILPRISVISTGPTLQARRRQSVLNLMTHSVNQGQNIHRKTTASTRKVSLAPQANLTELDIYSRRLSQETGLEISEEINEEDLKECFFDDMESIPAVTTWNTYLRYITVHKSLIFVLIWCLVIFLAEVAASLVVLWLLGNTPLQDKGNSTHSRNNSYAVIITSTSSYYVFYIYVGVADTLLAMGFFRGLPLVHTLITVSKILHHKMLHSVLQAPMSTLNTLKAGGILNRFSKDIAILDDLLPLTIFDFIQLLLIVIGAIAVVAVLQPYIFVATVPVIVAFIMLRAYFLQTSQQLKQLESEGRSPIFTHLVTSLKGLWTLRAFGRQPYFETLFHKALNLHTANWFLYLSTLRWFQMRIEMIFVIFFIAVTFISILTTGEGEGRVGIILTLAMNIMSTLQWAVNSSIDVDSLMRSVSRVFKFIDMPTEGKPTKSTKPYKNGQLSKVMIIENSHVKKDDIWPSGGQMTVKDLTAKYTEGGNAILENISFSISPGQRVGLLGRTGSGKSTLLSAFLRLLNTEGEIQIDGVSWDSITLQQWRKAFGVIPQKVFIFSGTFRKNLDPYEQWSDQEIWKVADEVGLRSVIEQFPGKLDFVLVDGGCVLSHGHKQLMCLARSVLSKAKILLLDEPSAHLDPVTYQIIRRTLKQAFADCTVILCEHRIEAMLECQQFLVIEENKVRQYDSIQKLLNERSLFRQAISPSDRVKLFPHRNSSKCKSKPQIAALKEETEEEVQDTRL

In the case of `O=C(O)c1ccc(/C=C2\SC(=S)N(c3cccc(C(F)(F)F)c3)C2=O)cc1` [Inh-172, CFTRinh-172], the “percent inhibition of current, individual cell” value (“percent inhibition of current” below) ([1]; 50 nM Inh-172) is reported as 45.0 and 25.0, the inhibition at 0.05 µM ([1]; 50 nM Inh-172, read-out: percent inhibition of current, Mean) is reported as 35.8% and the inhibition at 0.05 µM ([1]; 50 nM Inh-172, read-out: percent inhibition of current, individual cell) is reported as 34%. The “percent inhibition of current” value ([1]; 100 nM Inh-172) was 51.0 and 37.0 and 50.0, the inhibition at 0.1 µM ([1]; 100 nM Inh-172, read-out: percent inhibition of current, Mean) was 44.3% and the inhibition at 0.1 µM ([1]; 100 nM Inh-172, read-out: percent inhibition of current, individual cell) was 39%. The “percent inhibition of current” value ([1]; 500 nM Inh-172) was 86.0 and 76.0, the inhibition at 0.5 µM ([1]; 500 nM Inh-172, read-out: percent inhibition of current, Mean) was 81.8% and the inhibition at 0.5 µM ([1]; 500 nM Inh-172, read-out: percent inhibition of current, individual cell) was 79%. The “percent inhibition of current” value ([1]; 1000 nM Inh-172) was 94.0 and 89.0, the inhibition at 1 µM ([1]; 1000 nM Inh-172, read-out: percent inhibition of current, Mean) was 92% and the inhibition at 1 µM ([1]; 1000 nM Inh-172, read-out: percent inhibition of current, individual cell) was 91%. For the same compound, the “percent inhibition of current” value ([1]; 10000 nM Inh-172) was 100.0, the inhibition at 10 µM ([1]; 10000 nM Inh-172, read-out: percent inhibition of current, Mean) was 99.8% and the inhibition at 10 µM ([1]; 10000 nM Inh-172, read-out: percent inhibition of current, individual cell) was 99%. The “Hill Coefficient” value ([1]; h-pTMD1-h) was 0.98 ± 0.10, the IC50 ([1]; h-pTMD1-h) was 110 ± 10 nM and the “concentration at which precipitates were seen” value [2] was at least 20 µM.
